What was measured:
Mus musculus [1] = experiment: Analgesic activity in Mus musculus (mouse) assessed as inhibition of p-benzoquinone-induced writhing at 25 mg/kg, ip pretreated 30 min prior to carrageenan administration measured 2 hr after carrageenan challenge (reference value: 0%); format: functional; conditions: route intraperitoneal
Rattus norvegicus [2] = experiment: Anti-inflammatory activity in Rattus norvegicus albino (rat) assessed as inhibition of carrageenan-induced paw edema at 25 mg/kg, ip pretreated 30 min prior to carrageenan administration measured 3 hr after carrageenan challenge (reference value: 0%); format: functional; conditions: route intraperitoneal
Mus musculus [3] = experiment: Analgesic activity in Mus musculus (mouse) assessed as inhibition of p-benzoquinone-induced writhing at 25 mg/kg, ip pretreated 30 min prior to carrageenan administration measured 3 hr after carrageenan challenge (reference value: 0%); format: functional; conditions: route intraperitoneal
Rattus norvegicus [4] = experiment: Anti-inflammatory activity in Rattus norvegicus albino (rat) assessed as inhibition of carrageenan-induced paw edema at 25 mg/kg, ip pretreated 30 min prior to carrageenan administration measured 4 hr after carrageenan challenge (reference value: 0%); format: functional; conditions: route intraperitoneal
Mus musculus [5] = experiment: Analgesic activity in Mus musculus (mouse) assessed as inhibition of p-benzoquinone-induced writhing at 25 mg/kg, ip pretreated 30 min prior to carrageenan administration measured 1 hr after carrageenan challenge (reference value: 0%); format: functional; conditions: route intraperitoneal
[6] = Toxicity in ip dosed Mus musculus (mouse) after 24 hr; format: organism-based; conditions: in vivo
Mus musculus [7] = experiment: Analgesic activity in Mus musculus (mouse) assessed as inhibition of p-benzoquinone-induced writhing at 25 mg/kg, ip pretreated 30 min prior to carrageenan administration measured 4 hr after carrageenan challenge (reference value: 0%); format: functional; conditions: route intraperitoneal
Rattus norvegicus [8] = experiment: Anti-inflammatory activity in Rattus norvegicus albino (rat) assessed as inhibition of carrageenan-induced paw edema at 25 mg/kg, ip pretreated 30 min prior to carrageenan administration measured 2 hr after carrageenan challenge (reference value: 0%); format: functional; conditions: route intraperitoneal
Rattus norvegicus [9] = experiment: Anti-inflammatory activity in Rattus norvegicus albino (rat) assessed as inhibition of carrageenan-induced paw edema at 25 mg/kg, ip pretreated 30 min prior to carrageenan administration measured 1 hr after carrageenan challenge (reference value: 0%); format: functional; conditions: route intraperitoneal
Rattus norvegicus [10] = experiment: Gastrointestinal toxicity in Rattus norvegicus albino (rat) assessed as ulcer index at 25 mg/kg, po for 3 days measured 2 hr after last dose; format: organism-based; set-up: dose 25 mg/kg, route oral; conditions: in vivo

Row | Structure (SMILES) | inhibition in vivo at 25 mg/kg (Mus musculus [1]) | inhibition in vivo at 25 mg/kg (Rattus norvegicus [2]) | inhibition in vivo at 25 mg/kg (Mus musculus [3]) | inhibition in vivo at 25 mg/kg (Rattus norvegicus [4]) | inhibition in vivo at 25 mg/kg (Mus musculus [5]) | LD50 at 24 h [6] | inhibition in vivo at 25 mg/kg (Mus musculus [7]) | inhibition in vivo at 25 mg/kg (Rattus norvegicus [8]) | inhibition in vivo at 25 mg/kg (Rattus norvegicus [9]) | UI (Rattus norvegicus [10])
1 | COc1ccc(C2=NN(C(=O)NS(=O)(=O)c3ccc(C)cc3)CC2C)c(OC)c1 (stereo unspecified) | 20% | 25.2% | 0% | 25.1% | 20% | 232 mg/kg | 0% | 27.3% | 23.7% | –
2 | C=C(C(=O)c1ccc(OC)cc1OC)c1ccccc1 | – | 1.92% | – | 2.9% | – | 232 mg/kg | – | 1.43% | 0% | –
3 | CCOC(=O)c1nn(-c2ccccc2)c(-c2ccc(OC)cc2OC)c1C | – | 5.81% | – | 5.77% | – | 278 mg/kg | – | 4.86% | 4.9% | –
4 | COc1ccc(C2=NN(C(=S)NC(=O)c3ccc(Cl)cc3)CC2c2ccccc2)c(OC)c1 (stereo unspecified) | – | 1.43% | – | 1.92% | – | 292 mg/kg | – | 0% | 0% | –
5 | COc1ccc(C2=NN(C(=O)NS(=O)(=O)c3ccc(Cl)cc3)CC2c2ccccc2)c(OC)c1 (stereo unspecified) | 40% | 25.7% | 20% | 23.6% | 40% | 248 mg/kg | 0% | 27.3% | 24.1% | –
6 | COc1ccc(C2=NN(C(=O)NS(=O)(=O)c3ccc(C)cc3)CC2c2ccccc2)c(OC)c1 (stereo unspecified) | – | 4.83% | – | 7.21% | – | 292 mg/kg | – | 6.33% | 4.9% | –
7 | Cc1ccc(-c2cc(C(F)(F)F)nn2-c2ccc(S(N)(=O)=O)cc2)cc1 [CELECOXIB] | 100% | 64% | 80% | 62.8% | 100% | 250 mg/kg | 80% | 61.1% | 54.2% | 8.4
8 | CCOC(=O)c1nn(-c2ccccc2)c(-c2ccc(OC)cc2OC)c1-c1ccccc1 | – | 20.8% | – | 20.2% | – | 292 mg/kg | – | 20.5% | 17.7% | –
9 | CCOC(=O)C(=O)C(C(=O)c1ccc(OC)cc1OC)c1ccccc1 (stereo unspecified) | – | 20.8% | – | 21.2% | – | 278 mg/kg | – | 20% | 15.1% | –
10 | COc1ccc(C2=NN(C(=S)NC(=O)c3ccc(Cl)cc3)CC2C)c(OC)c1 (stereo unspecified) | – | 1.94% | – | 1.43% | – | 232 mg/kg | – | 0% | 0% | –
11 | COc1ccc(C(=O)Cc2ccccc2)c(OC)c1 | – | 15% | – | 15.9% | – | 278 mg/kg | – | 11.2% | 5.91% | –
12 | COc1ccc(C2=NN(C(=O)NS(=O)(=O)c3ccc(Cl)cc3)CC2C)c(OC)c1 (stereo unspecified) | – | 16.4% | – | 18.8% | – | 248 mg/kg | – | 14.6% | 12.2% | –
13 | CCOC(=O)C(=O)C(C)C(=O)c1ccc(OC)cc1OC (stereo unspecified) | – | 26.1% | – | 24.6% | – | 278 mg/kg | – | 27.2% | 23.7% | –
14 | C=C(C)C(=O)c1ccc(OC)cc1OC | 20% | 31.5% | 0% | 32.3% | 20% | 278 mg/kg | 0% | 29.8% | 23.7% | 15.24
15 | COc1ccc(C2=NNCC2C)c(OC)c1 (stereo unspecified) | 60% | 45.1% | 40% | 44.4% | 80% | 292 mg/kg | 20% | 44.5% | 40.4% | 11.67
16 | CCOC(=O)c1nn(-c2ccc(Cl)cc2)c(-c2ccc(OC)cc2OC)c1-c1ccccc1 | – | 15% | – | 15.4% | – | 278 mg/kg | – | 12.7% | 6.89% | –
17 | CC(C)Cc1ccc(C(C)C(=O)O)cc1 (stereo unspecified) [IBUPROFEN] | – | 66.7% | – | 76.1% | – | – | – | 63.5% | 55.4% | 22.92
18 | COc1ccc(-c2c(C)c(C(=O)O)nn2-c2ccc(Cl)cc2)c(OC)c1 | 20% | 22.8% | 20% | 22.7% | 40% | 232 mg/kg | 0% | 28.4% | 24.7% | –
19 | COc1ccc(-c2c(-c3ccccc3)c(C(=O)O)nn2-c2ccc(Cl)cc2)c(OC)c1 | 60% | 45.5% | 40% | 42.5% | 80% | 232 mg/kg | 20% | 42% | 37% | 11.56
20 | CCOC(=O)c1nn(-c2ccc(Cl)cc2)c(-c2ccc(OC)cc2OC)c1C | 40% | 2.22% | 20% | 2.38% | 40% | 248 mg/kg | 0% | 1.43% | 0% | –
21 | COc1ccc(C2=NNCC2c2ccccc2)c(OC)c1 (stereo unspecified) | – | 1.8% | – | 1.92% | – | 278 mg/kg | – | 0% | 0% | –
